One test has as its target human CB2 receptor (Homo sapiens (Human), UniProt P34972). Nature of the test: cAMP assay, CHO cells expressing human CB2 receptors. The test is classed as cell-based. Conditions: functional cAMP assay, CHO cells expressing human CB2; read-out: human CB2 EC50. The method, then: (§1) CHO cells expressing human CB1 or CB2 receptors are seeded 17-24 hours prior to the experiment 50.000 cells per well in a black 96 well plate with flat clear bottom (Corning Costar #3904) in DMEM (Invitrogen No. 31331), lx HT supplement, with 10% fetal calf serum and incubated at 5% CO2 and 37° C. in a humidified incubator. The growth medium was exchanged with Krebs Ringer Bicarbonate buffer with 1 mM IBMX and incubated at 30° C. for 30 min. Compounds were added to a final assay volume of 100 μl and incubated for 30 min at 30° C. Using the cAMP-Nano-TRF detection kit the assay (Roche Diagnostics) was stopped by the addition of 50 μl lysis reagent (Tris, NaCl, 1.5% Triton X100, 2.5% NP40, 10% NaN3) and 50 μl detection solutions (20 μM mAb Alexa700-cAMP 1:1, and 48 μM Ruthenium-2-AHA-cAMP) and shaken for 2 h at room temperature. The time-resolved energy transfer is measured by a TRF reader (Evotec Technologies GmbH), equipped with a ND:YAG laser as excitation source. The plate is measured twice with the excitation at 355 nm and at the emission with a delay of 100 ns and a gate of 100 ns, total exposure time 10 s at 730 (bandwidth 30 nm) or 645 nm (bandwidth 75 nm), respectively. The FRET signal is calculated as follows: FRET=T730-Alexa730-P(T645-B645) with P=Ru730-B730/Ru645-B645, where T730 is the test well measured at 730 nM, T645 is the test well measured at 645 nm, B730 and B645 are the buffer controls at 730 nm and 645 nm, respectively. cAMP content is determined from the function of a standard curve spanning from 10 μM to 0.13 nM cAMP.
(§2) EC50 values were determined using Activity Base analysis (ID Business Solution, Limited). The EC50 values for a wide range of cannabinoid agonists generated from this assay were in agreement with the values published in the scientific literature.

The target in the next test is human CB1 receptor (Homo sapiens (Human), UniProt P21554). Put plainly: cAMP assay, CHO cells expressing human CB1 receptors. The test is classed as cell-based. As to conditions: functional cAMP assay, CHO cells expressing human CB1; read-out: human CB1 EC50. On the procedure: as §1, §2
Sequence of human CB1 receptor (P21554 whole entry): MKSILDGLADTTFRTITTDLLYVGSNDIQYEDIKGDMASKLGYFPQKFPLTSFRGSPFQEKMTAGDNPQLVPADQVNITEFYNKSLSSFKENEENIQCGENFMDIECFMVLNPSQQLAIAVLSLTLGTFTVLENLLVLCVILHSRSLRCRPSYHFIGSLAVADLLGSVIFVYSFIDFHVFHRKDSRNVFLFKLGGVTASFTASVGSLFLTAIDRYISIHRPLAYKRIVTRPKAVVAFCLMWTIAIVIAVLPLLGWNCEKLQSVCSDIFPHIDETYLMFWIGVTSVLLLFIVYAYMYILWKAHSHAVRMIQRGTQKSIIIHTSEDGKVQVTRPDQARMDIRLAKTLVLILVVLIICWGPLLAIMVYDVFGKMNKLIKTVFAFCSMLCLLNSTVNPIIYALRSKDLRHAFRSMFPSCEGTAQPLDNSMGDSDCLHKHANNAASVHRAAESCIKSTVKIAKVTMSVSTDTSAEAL

Sequence of human CB2 receptor (P34972 whole entry): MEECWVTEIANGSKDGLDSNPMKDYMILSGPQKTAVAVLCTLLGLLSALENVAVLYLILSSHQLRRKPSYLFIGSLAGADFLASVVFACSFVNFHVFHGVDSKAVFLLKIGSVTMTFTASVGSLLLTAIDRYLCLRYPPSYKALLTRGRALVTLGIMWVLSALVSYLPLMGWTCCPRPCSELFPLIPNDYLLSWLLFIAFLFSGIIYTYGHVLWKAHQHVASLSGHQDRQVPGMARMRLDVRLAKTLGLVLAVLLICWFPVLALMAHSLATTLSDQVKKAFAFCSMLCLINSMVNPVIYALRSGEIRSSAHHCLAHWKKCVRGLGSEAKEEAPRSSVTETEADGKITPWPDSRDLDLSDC

As for `COc1ccc(Cn2ncc3c(N4CCC(F)(F)C4)cc(C4CC4)nc32)cc1` [Example 24, 6-Cyclopropyl-4-(3,3-difluoro-pyrrolidin-1-yl)-1-[(4-methoxyphenyl)methyl]-1H-pyrazolo[3,4-b]pyridine], the EC50 at human CB2 receptor is 17.5 nM; at human CB1 receptor, > 10000 nM.

`Cc1nonc1Cn1ncc2c(N3CC[C@H](O)C3)nc(C(C)(C)C)nc21` [Example 25, (S)-1-[6-tert-Butyl-1-(4-methyl-furazan-3-ylmethyl)-1H-pyrazolo[3,4-d]pyrimidin-4-yl]-pyrrolidin-3-ol]: the EC50 on human CB2 receptor was 0.4 nM; on human CB1 receptor, > 10000 nM.

For `Cc1nonc1CO[C@H]1CCN(c2nc(C(C)(C)C)nc3c2cnn3Cc2nonc2C)C1` [Example 26, 6-tert-Butyl-4-[(S)-3-(4-methyl-furazan-3-ylmethoxy)-pyrrolidin-1-yl]-1-(4-methyl-furazan-3-ylmethyl)-1H-pyrazolo[3,4-d]pyrimidine], the results for the concentration for a half-maximal effect (EC50) at human CB2 receptor and at human CB1 receptor were 35.6 nM and > 10000 nM, respectively.

As to `Cc1nonc1Cn1ncc2c(N3CCC(F)(F)C3)nc(C3CC3)cc21` [Example 27, 6-Cyclopropyl-4-(3,3-difluoro-pyrrolidin-1-yl)-1-(4-methyl-furazan-3-ylmethyl)-1H-pyrazolo[4,3-c]pyridine], the EC50 at human CB2 receptor was 42.5 nM; at human CB1 receptor, > 10000 nM.

As to `Cc1nonc1Cn1ncc2c(N3CCC(F)(F)C3)cc(C3CC3)nc21` [Example 28, 6-Cyclopropyl-4-(3,3-difluoro-pyrrolidin-1-yl)-1-(4-methyl-furazan-3-ylmethyl)-1H-pyrazolo[3,4-b]pyridine], the EC50 at human CB2 receptor was 1.9 nM; at human CB1 receptor it was > 10000 nM.

In the case of `CC(C)(C)c1nc(N2CC[C@H](O)C2)c2cnn(Cc3ccccc3C(F)(F)F)c2n1` [Example 29, (S)-1-[6-tert-Butyl-1-[(2-trifluoromethylphenyl)methyl]-1H-pyrazolo[3,4-d]pyrimidin-4-yl]pyrrolidin-3-ol], the EC50 is 1.9 nM on human CB2 receptor and > 10000 nM on human CB1 receptor.

With `CC(C)(C)c1nc(N2CC[C@H](O)C2)c2cnn(Cc3ccccc3S(C)(=O)=O)c2n1` [Example 30, (S)-1-[6-tert-Butyl-1-(2-methanesulfonyl-benzyl)-1H-pyrazolo[3,4-d]pyrimidin-4-yl]-pyrrolidin-3-ol], the EC50 was 2.4 nM on human CB2 receptor and > 10000 nM on human CB1 receptor.

Regarding `Cn1nnnc1Cn1ncc2c(N3CC[C@H](O)C3)nc(C(C)(C)C)nc21` [Example 31, (S)-1-[6-tert-Butyl-1-(1-methyl-1H-tetrazol-5-ylmethyl)-1H-pyrazolo[3,4-d]pyrimidin-4-yl]-pyrrolidin-3-ol], the EC50 is 17.3 nM at human CB2 receptor and > 10000 nM at human CB1 receptor.

For `CC(C)(C)c1nc(N2CC[C@H](O)C2)c2cnn(Cc3ncccc3Cl)c2n1` [Example 32, (S)-1-[6-tert-Butyl-1-(3-chloro-pyridin-2-ylmethyl)-1H-pyrazolo[3,4-d]pyrimidin-4-yl]-pyrrolidin-3-ol], the concentration giving a half-maximal response (EC50) at human CB2 receptor is 1.5 nM; at human CB1 receptor it was > 10000 nM.

On to `CC(C)(C)c1nc(N2CC[C@H](O)C2)c2cnn(Cc3nnnn3C3CC3)c2n1` [Example 33, (S)-1-[6-tert-Butyl-1-(1-cyclopropyl-1H-tetrazol-5-ylmethyl)-1H-pyrazolo[3,4-d]pyrimidin-4-yl]-pyrrolidin-3-ol], for which the EC50 was 8.8 nM on human CB2 receptor and > 10000 nM on human CB1 receptor.

Take `CC(C)(C)c1nc(N2CCC[C@@H]2CO)c2cnn(Cc3ccccc3C(F)(F)F)c2n1` [Example 34, {(R)-1-[6-tert-Butyl-1-[(2-trifluoromethylphenyl)methyl]-1H-pyrazolo[3,4-d]pyrimidin-4-yl]pyrrolidin-2-yl}-methanol]: the EC50 on human CB2 receptor is 5 nM; at human CB1 receptor, > 10000 nM.

On to `COC[C@H]1CCCN1c1nc(C(C)(C)C)nc2c1cnn2Cc1ccccc1C(F)(F)F` [Example 35, 6-tert-Butyl-4-((R)-2-methoxymethyl-pyrrolidin-1-yl)-1-[(2-trifluoromethylphenyl)methyl]-1H-pyrazolo[3,4-d]pyrimidine], for which the EC50 on human CB2 receptor is 13.3 nM; at human CB1 receptor, > 10000 nM.

Take `COC[C@H]1CCCN1c1nc(C(C)(C)C)nc2c1cnn2Cc1nonc1C` [Example 36, 6-tert-Butyl-4-((R)-2-methoxymethyl-pyrrolidin-1-yl)-1-(4-methyl-furazan-3-ylmethyl)-1H-pyrazolo[3,4-d]pyrimidine]: the EC50 is 1.4 nM at human CB2 receptor and > 10000 nM on human CB1 receptor.

With `FC1(F)CCN(c2nc(Cl)nc3c2cnn3Cc2ccccc2C(F)(F)F)C1` [Example 37, 6-Chloro-4-(3,3-difluoropyrrolidin-1-yl)-1-[[2-(trifluoromethyl)phenyl]methyl]pyrazolo[3,4-d]pyrimidine], the EC50 was 17.2 nM at human CB2 receptor and > 10000 nM at human CB1 receptor.

With `CC(C)(C)COc1nc(N2CCC(F)(F)C2)c2cnn(Cc3ccccc3C(F)(F)F)c2n1` [Example 38, 4-(3,3-Difluoropyrrolidin-1-yl)-6-(2,2-dimethylpropoxy)-1-[[2-(trifluoromethyl)phenyl]methyl]pyrazolo[3,4-d]pyrimidine], the EC50 at human CB2 receptor was 16 nM; at human CB1 receptor, > 10000 nM.
